The source of these data is patent publication US20040138272A1, “1,4-Substituted cyclohexane derivatives” (priority 2002, published 2004).

The target of this assay is glycogen synthatase kinase 3 beta (GSKB) (Homo sapiens, UniProt P49841). Kind of assay: GSK B kinase activity of compounds (FIG. 10). It counts as biochemical. Conditions: 10 uM.
glycogen synthatase kinase 3 beta (GSKB), sequence (P49841 whole entry): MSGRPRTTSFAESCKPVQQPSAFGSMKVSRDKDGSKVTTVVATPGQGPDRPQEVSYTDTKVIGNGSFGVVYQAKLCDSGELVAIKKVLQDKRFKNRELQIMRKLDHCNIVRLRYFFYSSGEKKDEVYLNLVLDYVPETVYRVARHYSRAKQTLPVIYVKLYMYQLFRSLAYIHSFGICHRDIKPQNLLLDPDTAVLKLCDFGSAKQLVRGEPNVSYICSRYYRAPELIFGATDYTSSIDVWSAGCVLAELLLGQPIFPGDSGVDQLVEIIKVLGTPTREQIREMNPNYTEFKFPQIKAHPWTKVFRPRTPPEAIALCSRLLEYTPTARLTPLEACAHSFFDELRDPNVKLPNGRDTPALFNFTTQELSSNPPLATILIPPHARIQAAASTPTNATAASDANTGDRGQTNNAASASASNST
For the compound `C=CC[C@@H](NC)[C@H]1CC[C@H](C(=O)Nc2ccncc2)CC1.Cl.Cl` (relative stereo) [BA-1028, (R,S)-trans-4-[(N′-methyl)-but-3′-en-1′-amino]-N-(4″-pyridyl)cyclohexane Carboxamide Dihydrochloride], the “activity towards GSKB (FIG. 10)” value is recorded as “can exert activity”. As for `C=CC[C@@H](NCc1ccccc1)[C@H]1CC[C@H](C(=O)Nc2ccncc2)CC1.Cl.Cl` (relative stereo) [BA-1029, (R,S)-trans-4-[(N′-benzyl)-but-3′-en-1′-amino]-N-(4″-pyridyl)cyclohexane Carboxamide Dihydrochloride], the “activity towards GSKB (FIG. 10)” value is given as “can exert activity”. Next, `Cl.Cl.O=C(Nc1ccncc1)[C@H]1CC[C@H](NNCC(c2ccccc2)c2ccccc2)CC1` [BA-1034, trans-4-{N′-[2′,2′-(Diphenyl)ethyl]hydrazino}-N-(4′″-pyridyl)cyclohexane Carboxamide Dihydrochloride]: “can exert activity”; `Cl.Cl.O=C(Nc1ccncc1)[C@H]1CC[C@H](NNCc2ccc(OCc3ccccc3)cc2)CC1` [BA-1035, trans-4-{N′-[4′-(Benzyloxy)benzyl]hydrazino}-N-(4′″-pyridyl)cyclohexane Carboxamide Dihydrochloride]: “can exert activity”.

Consider `Cl.Cl.O=C(Nc1ccncc1)[C@H]1CC[C@H](NNCC2CCCCC2)CC1` [BA-1036, trans-4-{N′-[(Cyclohexyl)methyl]hydrazino}-N-(4′″-pyridyl)cyclohexane Carboxamide Dihydrochloride], for which the “activity towards GSKB (FIG. 10)” value is “can exert activity”. In the case of `Cl.Cl.O=C(Nc1ccncc1)[C@H]1CC[C@H](NNC/C=C/c2ccccc2)CC1` [BA-1038, 1,4-trans-2′,3′-trans-4-{N′-[3′-(Phenyl)prop-2′-enyl]hydrazino}-N-(4′″-pyridyl)cyclohexane Carboxamide Dihydrochloride] it was “can exert activity”.
